Results on 2 compounds are retold here after patent US20230348516A1, “YKL-40 INHIBITORS AND THEIR THERAPEUTIC APPLICATIONS” (Molecure S.A., priority 2022, published 2023).

For this test, the target named is YKL-40 and asialofetuin interaction (Homo sapiens, UniProt P36222). In words: Orthogonal YKL-40 AlphaScreen assay using biotinylated asialofetuin (AF-biot). It is filed as binding. On the technique in general: Bead proximity is the source of the signal in Alpha formats.

Usually IC50 stands for the point on the concentration scale where inhibition reaches its midpoint. Low readings indicate greater potency, high ones weaker potency.

Sequence of YKL-40 and asialofetuin interaction (P36222 22-383): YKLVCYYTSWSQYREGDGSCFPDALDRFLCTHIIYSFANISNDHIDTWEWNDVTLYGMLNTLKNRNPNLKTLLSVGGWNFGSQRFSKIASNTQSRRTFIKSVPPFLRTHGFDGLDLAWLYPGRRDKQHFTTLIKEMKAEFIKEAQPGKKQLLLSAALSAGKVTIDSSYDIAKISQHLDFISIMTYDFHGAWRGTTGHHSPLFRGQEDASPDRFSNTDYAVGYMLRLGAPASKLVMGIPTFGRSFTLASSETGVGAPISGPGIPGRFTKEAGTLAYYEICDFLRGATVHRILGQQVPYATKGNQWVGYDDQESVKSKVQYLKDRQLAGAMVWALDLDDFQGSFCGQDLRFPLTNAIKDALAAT

For the compound `Cc1cc(C2CCC(N3C[C@H](C(=O)O)OC[C@@H]3Cc3ccc(Cl)cc3)CC2)nn1C.O=C(O)C(F)(F)F` (single isomer, unassigned) [Example 11], the “interference with YKL-40 and asialofetuin (triantennary LacNac) interaction” value is given as 64%.

Compound `Cc1cc(C2CCC(N3C[C@H](C(=O)O)OC[C@@H]3Cc3ccc(Cl)cc3)CC2)nn1C.O=C(O)C(F)(F)F` (single isomer, unassigned) [Example 11, 2,2,2-trifluoroacetate] registered an IC50 of 20 nM.
